# Measured values taken from ChEMBL document CHEMBL3875178, “Discovery of oral-available resveratrol-caffeic acid based hybrids inhibiting acetylated and phosphorylated STAT3 protein” (Eur J Med Chem, 2016).
# Columns and labels:
# [1] = Growth inhibition of human MDA-MB-231 cells after 48 hrs by MTT assay; type: functional, cell-based; details: MDA-MB-231, 48 h
# [2] = Growth inhibition of human HT-29 cells after 48 hrs by MTT assay; type: functional, cell-based; details: HT-29, 48 h
SMILES,IC50 [1] [µM],IC50 [2] [µM]
COc1cc(/C=C/c2ccc(OC(=O)/C=C/c3ccccc3)cc2)cc(OC)c1,9.81,9.05
COc1cc(/C=C/c2ccc(NC(=O)/C=C/c3ccc(O)c(O)c3)cc2)cc(OC)c1,4.23,1.56
COc1cc(/C=C/c2ccc(NC(=O)/C=C/c3ccccc3)cc2)cc(OC)c1,2.01,1.75
COc1cc(/C=C/c2ccc(NC(=O)/C=C/c3ccccc3F)cc2)cc(OC)c1,2.38,2.82
COc1cc(/C=C/c2ccc(OC(=O)/C=C/c3ccc(C(F)(F)F)cc3)cc2)cc(OC)c1,6.91,9.09
COc1cc(/C=C/c2ccc(NC(=O)/C=C/c3ccccn3)cc2)cc(OC)c1,3.4,6.12
COc1cc(/C=C/c2ccc(NC(=O)/C=C/c3ccc(Br)cc3)cc2)cc(OC)c1,6.16,5.26
COc1cc(/C=C/c2ccc(OC(=O)/C=C/c3ccc([N+](=O)[O-])cc3)cc2)cc(OC)c1,18,> 20
O=C(O)/C=C/c1ccc(O)c(O)c1 [CAFFEIC ACID],> 100,> 100
Oc1ccc(/C=C/c2cc(O)cc(O)c2)cc1 [RESVERATROL],> 100,> 100
COc1cc(/C=C/c2ccc(NC(=O)/C=C/c3cccc(F)c3)cc2)cc(OC)c1,17.3,16.8
COc1cc(/C=C/c2ccc(NC(=O)/C=C/c3ccc([N+](=O)[O-])cc3)cc2)cc(OC)c1,11.7,10.7
